Where a SMILES comes first, the peptide text is derived from it. Bridges are numbered along the chain shown (N, C = ends). [ ]: non-standard residue; d: D form. Bip(3'-COOH) = N[C@@H](Cc1ccc(-c2cccc(C(=O)O)c2)cc1)C(=O)O; Bip = N[C@@H](Cc1ccc(-c2ccccc2)cc1)C(=O)O; Cha = N[C@@H](CC1CCCCC1)C(=O)O; Orn = NCCC[C@H](N)C(=O)O; Dab = NCC[C@H](N)C(=O)O
Molecular target: T1, human PD-1 / PD-L1-Ig binding on Jurkat cell line over-expressing human PD-1 (Jurkat-PD-1) (Homo sapiens, UniProt Q15116)
T1 construct: expressed in transfected cells; host or cells: Jurkat
T1 sequence (Q15116 25-288): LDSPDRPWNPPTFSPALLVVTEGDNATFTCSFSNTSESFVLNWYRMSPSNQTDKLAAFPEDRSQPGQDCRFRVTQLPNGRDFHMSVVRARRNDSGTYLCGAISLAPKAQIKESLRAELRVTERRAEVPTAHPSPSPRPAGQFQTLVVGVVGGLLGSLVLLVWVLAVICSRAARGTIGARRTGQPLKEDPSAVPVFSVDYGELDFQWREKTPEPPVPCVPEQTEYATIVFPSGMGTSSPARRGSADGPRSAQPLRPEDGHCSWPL
Test: Jurkat-PD-1 Cell Binding High-Content Screening Assay (CBA)
Format: cell-based
Conditions: Jurkat-PD-1 cells, PE-labeled PD-L1-Ig 20 nM final; read-out: Jurkat HPD1_PDL1 IC50
Method in brief: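 Binding of fluorescent PD-L1-Ig (phycoerythrin linked via the Ig tag, 20 nM final) to PD-1-overexpressing Jurkat cells was imaged after a 2 h, 37° C compound pretreatment and 1 hour ligand incubation.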

In order of rising IC50:
1. CC(C)C[C@H]1NC(=O)[C@H](CCCN)NC(=O)[C@H](CCC(=O)O)NC(=O)[C@H](Cc2ccc(-c3ccccc3)cc2)NC(=O)[C@H](C(C)C)NC(=O)[C@H](Cc2c[nH]c3ccccc23)NC(=O)[C@H](CC(=O)O)NC(=O)[C@H](Cc2ccc(-c3cccc(C(=O)O)c3)cc2)NC(=O)[C@H](CN)NC(=O)CSC[C@@H](C(=O)N[C@@H](C)C(N)=O)NC(=O)[C@H]([C@@H](C)O)NC(=O)[C@H](C(C)C)NC(=O)[C@H](CC2CCCCC2)NC(=O)[C@H](CCN)NC1=O [Compound 2162]  7.7 nM
2. CC(C)C[C@H]1NC(=O)[C@H](CCCN)NC(=O)[C@H](CCC(=O)O)NC(=O)[C@H](Cc2ccc(-c3ccccc3)cc2)NC(=O)[C@H](C(C)C)NC(=O)[C@H](Cc2c[nH]c3ccccc23)NC(=O)[C@H](CC(=O)O)NC(=O)[C@H](Cc2ccc(-c3cccc(C(=O)O)c3)cc2)NC(=O)[C@H](Cc2ccncc2)NC(=O)CSC[C@@H](C(=O)N[C@@H](C)C(N)=O)NC(=O)[C@H]([C@@H](C)O)NC(=O)[C@H](C(C)C)NC(=O)[C@H](CC2CCCCC2)NC(=O)[C@H](CCN)NC1=O [Compound 2164]  8 nM
3. CC(C)C[C@H]1NC(=O)[C@H](CCCN)NC(=O)[C@H](CCC(=O)O)NC(=O)[C@H](Cc2ccc(-c3ccccc3)cc2)NC(=O)[C@H](C(C)C)NC(=O)[C@H](Cc2c[nH]c3ccccc23)NC(=O)[C@H](CC(=O)O)NC(=O)[C@H](Cc2ccc(-c3cccc(C(=O)O)c3)cc2)NC(=O)[C@H](Cc2ccc(OCC(=O)O)cc2)NC(=O)CSC[C@@H](C(=O)N[C@@H](C)C(N)=O)NC(=O)[C@H]([C@@H](C)O)NC(=O)[C@H](C(C)C)NC(=O)[C@H](CC2CCCCC2)NC(=O)[C@H](CCN)NC1=O [Compound 2163]  17.6 nM
4. CC(C)C[C@H]1NC(=O)[C@H](CCCN)NC(=O)[C@H](CCC(=O)O)NC(=O)[C@H](Cc2ccc(-c3ccccc3)cc2)NC(=O)[C@H](C(C)C)NC(=O)[C@H](Cc2c[nH]c3ccccc23)NC(=O)[C@H](CC(=O)O)NC(=O)[C@H](Cc2ccc(-c3cccc(C(=O)O)c3)cc2)NC(=O)[C@H](CN)NC(=O)CSC[C@@H](C(=O)N[C@@H](C)C(N)=O)NC(=O)[C@H]([C@@H](C)O)NC(=O)[C@H](C(C)C)NC(=O)[C@H](CC2CCCCC2)NC(=O)[C@H](CCN)NC1=O [Compound 2166]  22.7 nM
5. CC(C)C[C@H]1NC(=O)[C@H](CCCN)NC(=O)[C@H](CCC(=O)O)NC(=O)[C@H](Cc2ccc(-c3ccccc3)cc2)NC(=O)[C@H](C(C)C)NC(=O)[C@H](Cc2c[nH]c3ccccc23)NC(=O)[C@H](CC(=O)O)NC(=O)[C@H](Cc2ccc(-c3cccc(C(=O)O)c3)cc2)NC(=O)[C@H](CC(N)=O)NC(=O)CSC[C@@H](C(=O)N[C@@H](C)C(N)=O)NC(=O)[C@H]([C@@H](C)O)NC(=O)[C@H](C(C)C)NC(=O)[C@H](CC2CCCCC2)NC(=O)[C@H](CCN)NC1=O [Compound 2165] ({CH2CO}-N[Bip(3'-COOH)]DWV[Bip]E[Orn][dL][Dab][Cha]VTCA-NH2; thioether N-14)  24.1 nM
6. CC(C)C[C@H]1NC(=O)[C@H](CCCN)NC(=O)[C@H](CCC(=O)O)NC(=O)[C@H](Cc2ccc(-c3ccccc3)cc2)NC(=O)[C@H](C(C)C)NC(=O)[C@H](Cc2c[nH]c3ccccc23)NC(=O)[C@H](CC(=O)O)NC(=O)[C@H](Cc2ccc(-c3cccc(C(=O)O)c3)cc2)NC(=O)[C@H](Cc2ccccc2)NC(=O)CSC[C@@H](C(=O)N[C@@H](C)C(N)=O)NC(=O)[C@H]([C@@H](C)O)NC(=O)[C@H](C(C)C)NC(=O)[C@H](CC2CCCCC2)NC(=O)[C@H](CCN)NC1=O [Compound 2161] ({CH2CO}-F[Bip(3'-COOH)]DWV[Bip]E[Orn][dL][Dab][Cha]VTCA-NH2; thioether N-14)  27 nM
